# Results as given in publication PMC5939596 (Cell chemical biology, 2016).
# Non-standard residues stand in square brackets, D forms with d. *: point of attachment. ACC = NC(=O)Cc1cc(=O)oc2cc(N*)ccc12; Tic = O=C(O)[C@@H]1Cc2ccccc2CN1; AMC = Cc1cc(=O)oc2cc(N*)ccc12; Cbz = O=C(OCc1ccccc1)*
# Assays:
# legumain [1] = target: T1, legumain (Homo sapiens, UniProt Q99538); assay: pH dependence of legumain activity towards P1-Asn and P1-Asp substrates; format: biochemical
# T1 sequence (Q99538 18-323 limits assumed): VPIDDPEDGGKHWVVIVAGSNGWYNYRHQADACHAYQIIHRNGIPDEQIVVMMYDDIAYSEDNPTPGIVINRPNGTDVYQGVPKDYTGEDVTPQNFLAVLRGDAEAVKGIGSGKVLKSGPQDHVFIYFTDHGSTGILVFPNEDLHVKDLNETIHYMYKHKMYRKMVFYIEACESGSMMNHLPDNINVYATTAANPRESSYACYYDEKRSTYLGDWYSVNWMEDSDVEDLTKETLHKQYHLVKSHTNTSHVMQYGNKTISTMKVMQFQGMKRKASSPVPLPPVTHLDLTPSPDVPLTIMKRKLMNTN
# legumain [2] = target: T1, legumain; assay: Kinetics of ACC substrate hydrolysis by legumain; format: biochemical; conditions: for kcat/Km: hydrolysis by legumain
# [3] = target: T2, autoactivated recombinant human legumain (Homo sapiens, UniProt Q99538); assay: Km of legumain cleavage of Z-Ala-Ala-Asn-AMC; format: biochemical; conditions: 2.5 nM autoactivated rhLeg, substrate 1.565–200 nM, legumain assay buffer pH 5.8, 30°C
# T2 sequence (Q99538 18-323 limits assumed): T1 sequence (Q99538 18-323 limits assumed)
# legumain [4] = target: T1, legumain; assay: Direct probe binding and inhibition of legumain in M38L cell lysate; format: biochemical; conditions: M38L lysate 3.5 μg total protein, probe 0–10 μM, pH 5.8, 30 min at 30°C
# [5] = target: T3, recombinant auto-activated legumain (46 kDa) (Homo sapiens, UniProt Q99538); assay: Probe binding to recombinant enzyme; conditions: probe 10 nM, enzyme 50 nM, pH 5.8 and pH 7.2
# T3 sequence (Q99538 18-323 limits assumed): T1 sequence (Q99538 18-323 limits assumed)
# legumain [6] = target: T1, legumain; assay: Probe labelling in lysates of caspase-8/caspase-3 cotransfected M38L cells; format: cell-based; conditions: for probe labelling of legumain: probe 1 μM, 30 min at 30°C, pH 5.8 or 7.4, immunoblotting
# caspase-3 [7] = target: T4, caspase-3 (Homo sapiens, UniProt P42574); assay: as above; format: cell-based; conditions: probe 1 μM, 30 min at 30°C, pH 5.8 or 7.4, immunoblotting
# T4 sequence (P42574 29-175 limits assumed): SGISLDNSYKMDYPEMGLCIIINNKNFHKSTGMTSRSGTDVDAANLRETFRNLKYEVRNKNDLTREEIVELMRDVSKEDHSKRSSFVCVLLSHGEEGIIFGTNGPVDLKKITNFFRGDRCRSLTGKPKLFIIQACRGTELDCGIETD
# T4 sequence (P42574 176-277 limits assumed): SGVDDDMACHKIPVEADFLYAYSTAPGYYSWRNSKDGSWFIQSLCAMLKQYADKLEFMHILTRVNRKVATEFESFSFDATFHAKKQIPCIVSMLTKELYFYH
# prolegumain (56 kDa) = target: T5, prolegumain (56 kDa) (Homo sapiens, UniProt Q99538); assay: Probe binding to prolegumain; conditions: immunoblotting
# T5 sequence (Q99538 18-433): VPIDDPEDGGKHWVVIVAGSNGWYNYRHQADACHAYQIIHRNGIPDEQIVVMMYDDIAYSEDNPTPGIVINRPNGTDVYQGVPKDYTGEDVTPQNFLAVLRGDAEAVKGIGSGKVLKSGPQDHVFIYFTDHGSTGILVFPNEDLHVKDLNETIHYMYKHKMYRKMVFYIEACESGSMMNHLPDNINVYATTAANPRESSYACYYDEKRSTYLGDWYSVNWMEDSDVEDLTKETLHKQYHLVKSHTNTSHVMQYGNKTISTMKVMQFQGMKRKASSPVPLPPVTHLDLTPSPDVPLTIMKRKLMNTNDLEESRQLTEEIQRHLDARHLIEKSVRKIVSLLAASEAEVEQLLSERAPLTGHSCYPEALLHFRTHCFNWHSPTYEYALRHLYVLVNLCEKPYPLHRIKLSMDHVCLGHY
# [8] = target: T2, autoactivated recombinant human legumain; assay: Inhibition rate constants
# caspase-3 [9] = target: T4, caspase-3; assay: Probe binding in cytochrome c/dATP-activated FreeStyle 293-F cytosolic extract; conditions: probe 0–1 μM, pH 5.8 and 7.2, 5 or 30 min at 30°C, immunoblotting
# [10] = tested on: legumain over-expressing M38L cells; conditions: time-course 0–24 h, immunoblotting
substance,measurement,setting,value
Ac-D-Tyr-Tic-Thr-Asn-ACC,optimal pH for legumain activity,legumain [1],5.8
Ac-[dY][Tic]TD-{ACC},optimal pH for legumain activity,legumain [1],4.5
Cbz-Ala-Ala-Asn-{ACC},kcat/Km,legumain [2],36100 s^−1M^−1
same,times faster cleaved than its P1-Asp analog,"legumain [2]; ratio of kcat/Km, Z-AAN-ACC versus Z-AAD-ACC",~ 22
Cbz-Ala-Ala-Asn-{AMC},Km,[3],25.7 µM
Cbz-Ala-Ala-Asp-{ACC},kcat/Km,legumain [2],1600 M⁻¹ s⁻¹
biotin-6-ahx-D-Tyr-Tic-Ser-Asp-AOMK [MP-L01] [listing 1 of 2 here],potency relative to either methylated probes (MP-L02 or -L03),legumain [4],approximately 100 fold
same,binding to recombinant auto-activated legumain,[5],bound by MP-L01 at pH 5.8 and not at pH 7.2
same,pH dependence of legumain binding,"legumain [6]; lysates of M38L cells, pH 5.8 versus 7.4",only detected at pH 5.8 and not at 7.4
same,probe labelling of legumain,legumain [6],only binds legumain
same,probe labelling of caspase-3,caspase-3 [7],could not detect such activity
same,"binding to cellular, secreted or recombinant prolegumain (56 kDa)",prolegumain (56 kDa),did not bind
same,inhibition rate constant (kobs/I) relative to the two methylated probes (MP-L02 and -L03),"[8]; 2.5 nM enzyme, Z-Ala-Ala-Asn-AMC substrate, pH 5.8, 30°C",approximately 100 fold
same,binding to active caspase-3,caspase-3 [9],only weakly bound
biotin-6-ahx-D-Tyr-Tic-Ser-Asp-AOMK [MP-L01] [listing 2 of 2 here],incubation time for maximal detection of probe in cells,[10],8 to 24 h
biotin-6-ahx-DEVD-AOMK [reference compound],probe labelling of legumain,legumain [6],labels both legumain and caspase-3
same,probe labelling of caspase-3,caspase-3 [7],labels both legumain and caspase-3
same,"inhibition of recombinant legumain (kobs/I), lower efficiency than MP-L01",[8],20 fold
same,binding to active caspase-3,caspase-3 [9],strongly bound
